Patent US12215104B2, “Anti-biofilm compounds” (UNIVERSITY OF LOUISVILLE RESEARCH FOUNDATION, INC., priority 2018, dated 2025)
Like-named read-outs stand apart in the source and are kept apart here.

Assays:
[1] = tested on: P. gingivalis adherence to S. gordonii; test: Inhibition of P. gingivalis adherence to S. gordonii in two-species biofilm model; assay type: cell-based, P. gingivalis ATCC33277; S. gordonii DL-1
Description: (§1) To assess the functional activity of the click products, compounds 28-57 (Groups I and II) and 90-124 (Group III) were examined for inhibition of P. gingivalis adherence to S. gordonii using an established biofilm model system as described in the Section 4.2.1 [41]. For each compound tested, an IC50 value for adherence inhibition was approximated after quantifying the ratio of green to red fluorescence and these values are shown in Tables 2, 3 and 4. Compounds were classified as strong (IC50<10 μM), moderate (IC50=10-20 μM) or weak (IC50>20 μM) inhibitors of adherence. Twelve compounds were identified as strong inhibitors and an additional ten compounds were classified as moderate inhibitors. […] Compounds 54, 56, 93, 95, 100, 102, 103, and 115 were also tested to determine if they affect the growth of P. gingivalis or S. gordonii. […] The sulfoxide group does impart asymmetry to the molecule; however, the mixture of enantiomers, assuming the peracid oxidation was racemic, was not separated and bioassayed. The Group III active compounds (95-117) all contain the 1,3,5-trisubstituted-2,4,6-triazine modeled after the Katzenellenbogen rendering of an active motif whereby the key leucine residues which mimicked the VXXLL receptor box lie in a triangular arrangement. While the original iteration of the Katzenellenbogen VXXLL mimics were the hydrophobic 3,5-disubstituted-di-N-alkyamino-triazine motifs, we introduced the hydrophobic 2- and 4-(fluorophenyl)amino groups at positions 3 and 5 of the 2,4,6-triazine (See Compounds 102, 111, 115, 122).
(§2) P. gingivalis ATCC33277 was grown in reduced trypticase soy broth (Difco) supplemented with 0.5 percent yeast extract, 1 μg/mL menadione, and 5 μg/mL hemin. Twenty five milliliters of medium were reduced for 24 h under anaerobic conditions by equilibrating in an atmosphere consisting of 10% CO2, 10% H2, and 80% N2. Following equilibration, P. gingivalis was inoculated in the media and grown for 48 h at 37° C. under anaerobic conditions. S. gordonii DL-1 (1) was cultured aerobically without shaking in brain heart infusion (BHI) broth supplemented with 1 percent yeast extract for 16 hours at 37° C. For some compounds that inhibited P. gingivalis adherence to S. gordonii, we determined their affect the planktonic growth of P. gingivalis and S. gordonii. Broth cultures were grown as described above and compared to cultures grown in the absence of the compound. Cell density of each culture was determined by measuring the optical density at 600 nm (O.D.600 nm) after 24 h of growth. The percent growth inhibition/stimulation was calculated using the following equation: [(O.D.600 nm of the control/O.D.600 nm of the culture grown in the presence of compound)−1]×100.
Two species biofilms were formed essentially as previously described. To prepare bacterial cells for biofilm culture, 10 ml of an overnight S. gordonii culture was centrifuged at 5600 rpm for 5 min and the cell pellet was suspended in 1 mL sterile PBS. Subsequently, 20 μL of 5 mg/ml hexidium iodide (Molecular Probes) was added to the cell suspension and incubated for 15 min with gentle shaking at room temperature in the dark. The labeled cells were centrifuged as described above, washed with phosphate buffered saline (10 mM Na2HPO4, […], […], and 2.7 mM KCl, pH 7.2; [PBS]) and the cell pellet was suspended in PBS at a final O.D.600 nm of 0.8. Similarly, 10 mL of a 48 h culture of P. gingivalis was centrifuged at 5600 rpm for 15 min, the cell pellet was suspended in 1 mL PBS and 20 μl of 5(6)-carboxyfluorescein N-hydroxysuccinimide ester (4 mg/ml, Molecular Probes, Inc.) was added. After incubation for 30 min with gentle shaking at room temperature in the dark, the suspension was centrifuged and washed as described above and suspended in PBS at a final O.D.600 nm of 0.4. […]

P. gingivalis = test: Effect on planktonic growth of P. gingivalis; assay type: cell-based, P. gingivalis ATCC33277; conditions: incubated overnight in the presence of 40 μM compound
Description: as §1, §2

S. gordonii = test: Effect on planktonic growth of S. gordonii; assay type: cell-based, S. gordonii DL-1; conditions: incubated overnight in the presence of 40 μM compound
Description: as §1, §2

gingival keratinocytes = test: Induction of apoptosis in gingival keratinocytes; assay type: cell-based
[2] = tested on: pre-existing 3-species biofilm; test: Disruption of a pre-existing 3-species biofilm in vitro; assay type: cell-based; conditions: 20 μM
[3] = read-out: IC50 for inhibition of adherence of P. gingivalis to S. gordonii
[4] = Table 3, Group II click products, concentration reducing green to red fluorescence ratio by 50%, approximated
[5] = Table 2, Group I triazoles, concentration reducing ratio of green (P. gingivalis) to red (S. gordonii) fluorescence by 50%, approximated

For `CCN(CC)c1nc(-c2cn(-c3ccc(-c4nc(-c5ccc(Cl)cc5)c(-c5ccc(Cl)cc5)o4)cc3)nn2)nc(N(CC)CC)n1` [Compound 95], the IC50 ([1]; Group III) was 3.7 µM, the IC50 [1, 3] was 2.3 to 5.3 µM and the “effect on growth of planktonic cultures of P. gingivalis” value (shortened to “effect on growth … of P. gingivalis”) (P. gingivalis) was “No effect on growth”. The “effect on growth of planktonic cultures of S. gordonii” value (“effect on growth … of S. gordonii” for short) (S. gordonii) was “No effect on growth”, the early apoptosis (gingival keratinocytes; 5 μM, gingival keratinocytes) was 5.02 and the late apoptosis (gingival keratinocytes; 5 μM, gingival keratinocytes) was 4.27. The live cells (gingival keratinocytes; 5 μM, gingival keratinocytes) was 88.50, the early apoptosis (gingival keratinocytes; 20 μM, gingival keratinocytes) was 4.89 and the late apoptosis (gingival keratinocytes; 20 μM, gingival keratinocytes) was 4.26. The live cells (gingival keratinocytes; 20 μM, gingival keratinocytes) was 88.35, the early apoptosis (gingival keratinocytes; 40 μM, gingival keratinocytes) was 3.80 and the late apoptosis (gingival keratinocytes; 40 μM, gingival keratinocytes) was 2.83. The live cells (gingival keratinocytes; 40 μM, gingival keratinocytes) was 91.75, the “disruption of pre-existing 3-species biofilm” value (from here on “disruption”) ([2]; time treated 1 h) was 16.47 and the “disruption” value ([2]; time treated 2 h) was 52.84. For the same compound, the “disruption” value ([2]; time treated 3 h) was 81.
Work on `Fc1ccc(Nc2nc(Nc3ccc(F)cc3)nc(-c3cn(-c4ccccc4-c4nc(-c5ccco5)c(-c5ccco5)o4)nn3)n2)cc1` [Compound 122] yielded an IC50 ([1]; Group III) of 2.4 µM, an early apoptosis (gingival keratinocytes; 5 μM, gingival keratinocytes) of 4.50 and a late apoptosis (gingival keratinocytes; 5 μM, gingival keratinocytes) of 3.95. The live cells (gingival keratinocytes; 5 μM, gingival keratinocytes) was 88.30, the early apoptosis (gingival keratinocytes; 20 μM, gingival keratinocytes) was 5.93 and the late apoptosis (gingival keratinocytes; 20 μM, gingival keratinocytes) was 2.92. For the same compound, the live cells (gingival keratinocytes; 20 μM, gingival keratinocytes) was 88.80, the early apoptosis (gingival keratinocytes; 60 μM, gingival keratinocytes) was 7.54 and the late apoptosis (gingival keratinocytes; 60 μM, gingival keratinocytes) was 4.59. The live cells (gingival keratinocytes; 60 μM, gingival keratinocytes) was 83.65, the “disruption” value ([2]; time treated 1 h) was 0 and the “disruption” value ([2]; time treated 2 h) was 25.71. The “disruption” value ([2]; time treated 3 h) was 68.82.
In the case of `CCN(CC)c1nc(-c2cn(-c3ccc(-c4nc(-c5ccc(F)cc5)c(-c5ccc(F)cc5)o4)cc3)nn2)nc(N(CC)CC)n1` [Compound 93], the IC50 ([1]; Group III) is reported as 9.4 µM, the “effect on growth … of P. gingivalis” value (P. gingivalis) is reported as “No effect on growth” and the “effect on growth … of S. gordonii” value (S. gordonii) is reported as “No effect on growth”.
With `Fc1ccc(-c2nc(-c3ccc(-n4cc(-c5nc(Nc6ccccc6F)nc(Nc6ccccc6F)n5)nn4)cc3)oc2-c2ccc(F)cc2)cc1` [Compound 103] the IC50 ([1]; Group III) was 12.3 µM, the “effect on growth … of P. gingivalis” value (P. gingivalis) was “No effect on growth” and the “effect on growth … of S. gordonii” value (S. gordonii) was “No effect on growth”.
`Fc1ccc(Nc2nc(Nc3ccc(F)cc3)nc(-c3cn(-c4ccc(-c5nc(-c6ccc(F)cc6)c(-c6ccc(F)cc6)o5)cc4)nn3)n2)cc1` [Compound 115] was tested, and the IC50 ([1]; Group III) was 2.3 µM, the IC50 [1, 3] was 2.3 to 5.3 µM and the “effect on growth … of P. gingivalis” value (P. gingivalis) was “No effect on growth”. The “effect on growth … of S. gordonii” value (S. gordonii) was “No effect on growth”, the early apoptosis (gingival keratinocytes; 5 μM, gingival keratinocytes) was 3.89 and the late apoptosis (gingival keratinocytes; 5 μM, gingival keratinocytes) was 4.21. For the same compound, the live cells (gingival keratinocytes; 5 μM, gingival keratinocytes) was 87.85, the early apoptosis (gingival keratinocytes; 10 μM, gingival keratinocytes) was 4.07 and the late apoptosis (gingival keratinocytes; 10 μM, gingival keratinocytes) was 2.47. It also gave a live cells (gingival keratinocytes; 10 μM, gingival keratinocytes) of 91.25, an early apoptosis (gingival keratinocytes; 20 μM, gingival keratinocytes) of 4.06 and a late apoptosis (gingival keratinocytes; 20 μM, gingival keratinocytes) of 2.80. The live cells (gingival keratinocytes; 20 μM, gingival keratinocytes) was 91.20, the “disruption” value ([2]; time treated 1 h) was 15.26 and the “disruption” value ([2]; time treated 2 h) was 45.62. For the same compound, the “disruption” value ([2]; time treated 3 h) was 76.06.
In the case of `Fc1ccccc1Nc1nc(Nc2ccccc2F)nc(-c2cn(-c3cccc(-c4nc(-c5ccccc5)c(-c5ccccc5)o4)c3)nn2)n1` [Compound 100], the “effect on growth … of P. gingivalis” value (P. gingivalis) is reported as “No effect on growth” and the “effect on growth … of S. gordonii” value (S. gordonii) is reported as “No effect on growth”.
With `Fc1ccc(Nc2nc(Nc3ccc(F)cc3)nc(-c3cn(-c4cccc(-c5nc(-c6ccccc6)c(-c6ccccc6)o5)c4)nn3)n2)cc1` [Compound 111] the IC50 ([1]; Group III) was 4.3 µM, the IC50 [1, 3] was 2.3 to 5.3 µM and the early apoptosis (gingival keratinocytes; 5 μM, gingival keratinocytes) was 4.96. For the same compound, the late apoptosis (gingival keratinocytes; 5 μM, gingival keratinocytes) was 2.36, the live cells (gingival keratinocytes; 5 μM, gingival keratinocytes) was 89.25 and the early apoptosis (gingival keratinocytes; 20 μM, gingival keratinocytes) was 5.06. It also gave a late apoptosis (gingival keratinocytes; 20 μM, gingival keratinocytes) of 3.39, a live cells (gingival keratinocytes; 20 μM, gingival keratinocytes) of 87.95 and an early apoptosis (gingival keratinocytes; 60 μM, gingival keratinocytes) of 5.60. The late apoptosis (gingival keratinocytes; 60 μM, gingival keratinocytes) was 4.38, the live cells (gingival keratinocytes; 60 μM, gingival keratinocytes) was 84.40 and the “disruption” value ([2]; time treated 1 h) was 0.62. The “disruption” value ([2]; time treated 2 h) was 7.33 and the “disruption” value ([2]; time treated 3 h) was 56.63.
With `O=S(=O)(Cc1nc(-c2ccc(Cl)cc2)c(-c2ccc(Cl)cc2)o1)c1ccc(-n2cc(-c3ccc(F)cc3)nn2)cc1` [Compound 56] the IC50 [1, 4] was 6.3 µM, the “effect on growth … of P. gingivalis” value (P. gingivalis) was “No effect on growth” and the “effect on growth … of S. gordonii” value (S. gordonii) was “No effect on growth”.
With `OO` [Compound H2O2, H2O2, reference compound] the early apoptosis (gingival keratinocytes; 4 mM 1 h, positive control) was 35.60, the late apoptosis (gingival keratinocytes; 4 mM 1 h, positive control) was 41.50 and the live cells (gingival keratinocytes; 4 mM 1 h, positive control) was 11.30.
For `COc1ccccc1-c1cn(-c2ccc(S(=O)(=O)Cc3nc(-c4ccc(F)cc4)c(-c4ccc(F)cc4)o3)cc2)nn1` [Compound 54], the IC50 [1, 4] was 21.2 µM, the “effect on growth … of P. gingivalis” value (P. gingivalis) was “No effect on growth” and the “effect on growth … of S. gordonii” value (S. gordonii) was “No effect on growth”.
Work on `CCN(CC)c1nc(-c2cn(-c3ccc(-c4nc(-c5ccccc5)c(-c5ccccc5)o4)cc3)nn2)nc(N(CC)CC)n1` [Compound 91] yielded an IC50 ([1]; Group III) greater than 60 µM.
Work on `COc1ccccc1-c1cn(-c2ccc([S+]([O-])Cc3nc(-c4ccc(Cl)cc4)c(-c4ccc(Cl)cc4)o3)cc2)nn1` (stereo not shown) [Compound 51] yielded an IC50 [1, 4] of 10.2 µM.
Work on `Fc1ccc(Nc2nc(Nc3ccc(F)cc3)nc(-c3cn(-c4cccc(-c5nc(-c6ccc(Cl)cc6)c(-c6ccc(Cl)cc6)o5)c4)nn3)n2)cc1` [Compound 117] yielded an IC50 ([1]; Group III) of 27.8 µM and an IC50 [1, 3] of 2.3 to 5.3 µM.
`O=S(=O)(Cc1nc(-c2ccccc2)c(-c2ccccc2)o1)c1ccc(-n2cc(-c3cccc(F)c3)nn2)cc1` [Compound 39] showed an IC50 [1, 5] of 33.6 µM.
Work on `[O-][S+](Cc1nc(-c2ccccc2)c(-c2ccccc2)o1)c1ccc(-n2cc(-c3ccccc3C(F)(F)F)nn2)cc1` (stereo not shown) [Compound 32] yielded an IC50 [1, 5] greater than 60 µM.
For `Fc1ccc(-c2nc(-c3cccc(-n4cc(-c5nc(Nc6ccccc6F)nc(Nc6ccccc6F)n5)nn4)c3)oc2-c2ccc(F)cc2)cc1` [Compound 102], the IC50 ([1]; Group III) was 5 µM, the “effect on growth … of P. gingivalis” value (P. gingivalis) was “No effect on growth” and the “effect on growth … of S. gordonii” value (S. gordonii) was “No effect on growth”.
`Fc1ccc(Nc2nc(Nc3ccc(F)cc3)nc(-c3cn(-c4ccc(-c5nc(-c6ccco6)c(-c6ccco6)o5)cc4)nn3)n2)cc1` [Compound 124] gave an IC50 ([1]; Group III) of 7.8 µM.
With `Fc1ccccc1Nc1nc(Nc2ccccc2F)nc(-c2cn(-c3ccc(-c4nc(-c5ccc(Cl)cc5)c(-c5ccc(Cl)cc5)o4)cc3)nn2)n1` [Compound 105] the IC50 ([1]; Group III) was greater than 60 µM.
For `Fc1ccc(Nc2nc(Nc3ccc(F)cc3)nc(-c3cn(-c4ccc(-c5nc(-c6ccc(Cl)cc6)c(-c6ccc(Cl)cc6)o5)cc4)nn3)n2)cc1` [Compound 118], the IC50 ([1]; Group III) was 13.3 µM.
